Structures can show the parent of a compound that is named as a salt.
Experiments:
[1] = Oral bioavailability of peptide amphetamine conjugates (HCl salts, ELISA); conditions: rats
[2] = Intranasal bioavailability of peptide amphetamine conjugates (HCl salts, ELISA); conditions: for Percent AUC (bioavailability relative to Amphetamine) / Percent Cmax (relative to Amphetamine): Intranasal, rats
[3] = Kitchen tests: water, acid (vinegar), base (baking powder, baking soda), boiling; type: physicochemical; conditions: for free amphetamine released: heated to boiling for 20-60 minutes
Protocol: “Kitchen tests” were performed in anticipation of attempts by illicit chemists to release free amphetamine from the amphetamine conjugate.

[4] = Intravenous bioavailability of peptide amphetamine conjugates (HCl salts, ELISA); conditions: rats
[5] = Oral bioavailability at escalating doses (LC/MS/MS); conditions: rat, oral
rats [6] = conditions: cited from earlier work
rats [7] = experiment: Single oral dose toxicity; type: in vivo, Sprague Dawley rats; conditions: rat, single oral dose
Protocol: Three male and three female Sprague Dawley rats per group were given a single oral administration of L-lysine-d-amphetamine at 0.1, 1.0, 10, 60, 100, or 1000 mg/kg (Table 53).
Animals found dead, or sacrificed moribund were necropsied and discarded.

children with ADHD = experiment: Pediatric efficacy trial, ADHD-RS and CPRS, parallel-group, four weeks; conditions: children 6-12, 30, 50 or 70 mg once daily
[8] = Stability under basic conditions
[9] = tested on: enzyme cocktails (pepsin, pancreatin, pronase, esterase, Omnigest, VitälZym); experiment: Stability under treatment with commercially available enzyme cocktails; type: in vitro ADME; conditions: 37° C.
Protocol: For acids and bases (Table 59), 10 mg of Lys-Amp was mixed with 2 mL of each stock solution, and the solution was shaken at 20° C. For enzyme treatment (Table 60), 10 mg Lys-Amp was mixed with 5 mL of each enzyme cocktail, and the solution was shaken at 37° C. […] Many of the commercially available reagents also contained various solvents and/or surfactants.
Unless otherwise indicated, solutions were used directly from the container and were combined with neat Lys-Amp solid. Lewis Red Devil® Lye, Enforcer Drain Care® Septic Treatment, and Rid-X® Septic Treatment were prepared as saturated solutions in H2O. Enzymes used were purchased from Sigma and directly dissolved in water (3 mg/mL pepsin, 10 mg/mL pancreatin, 3 mg/mL pronase, 3 mg/mL esterase), while enzyme-containing nutraceuticals such as Omnigest® and VitälZym® were first either crushed or opened (1 tablet or capsule per 5 mL of H2O).

[2H]OC(=O)CC[C@H](N)C(=O)NC(C)Cc1ccccc1 (some centres unmarked) [E-Amp]
Percent AUC (bioavailability relative to Amphetamine) [1]: 73%
Percent Cmax (relative to Amphetamine) [1]: 95%

[2H]OC(=O)CC[C@H](NC(=O)[C@@H](N)CCC(=O)O)C(=O)NC(C)Cc1ccccc1 (some centres unmarked) [EE-Amp]
Percent AUC (bioavailability relative to Amphetamine) [1]: 26%
Percent Cmax (relative to Amphetamine) [1]: 74%

[2H]OC(=O)CC[C@H](NC(=O)[C@H](CCC(=O)O)NC(=O)[C@@H](N)CCC(=O)O)C(=O)NC(C)Cc1ccccc1 (some centres unmarked) [EEE-Amp]
Percent AUC (bioavailability relative to Amphetamine) [2]: 10%
Percent Cmax (relative to Amphetamine) [2]: 10%
Percent AUC (bioavailability relative to Amphetamine) [1]: 69%
Percent Cmax (relative to Amphetamine) [1]: 53%

[2H]N(C(=O)[C@H](CCC(=O)O)NC(=O)[C@@H](N)CCC(=O)O)[C@@H](Cc1ccccc1)C(=O)NC(C)Cc1ccccc1 (some centres unmarked) [EEF-Amp]
Percent AUC (bioavailability relative to Amphetamine) [2]: 39%
Percent Cmax (relative to Amphetamine) [2]: 29%
Percent AUC (bioavailability relative to Amphetamine) [1]: 42%
Percent Cmax (relative to Amphetamine) [1]: 73%

[2H]N(C(=O)[C@@H](N)Cc1ccccc1)[C@@H](Cc1ccccc1)C(=O)NC(C)Cc1ccccc1 (some centres unmarked) [FF-Amp]
Percent AUC (bioavailability relative to Amphetamine) [1]: 27%
Percent Cmax (relative to Amphetamine) [1]: 64%

CC(Cc1ccccc1)NC(=O)CN (centres unmarked) [G-Amp]
Percent AUC (bioavailability relative to Amphetamine) [2]: 65%
Percent Cmax (relative to Amphetamine) [2]: 53%
Percent AUC (bioavailability relative to Amphetamine) [1]: 81%
Percent Cmax (relative to Amphetamine) [1]: 78%

[2H]N(CC(=O)NC(C)Cc1ccccc1)C(=O)CN (centres unmarked) [GG-Amp]
Percent AUC (bioavailability relative to Amphetamine) [2]: 88%
Percent Cmax (relative to Amphetamine) [2]: 85%
Percent AUC (bioavailability relative to Amphetamine) [1]: 79%
Percent Cmax (relative to Amphetamine) [1]: 88%

CC(Cc1ccccc1)NC(=O)CNC(=O)CNC(=O)CN (centres unmarked) [Gly3-Amp, 2-amino-N-({[(1-methyl-2-phenyl-ethylcarbornyl)-methyl]-carbornyl}-methyl)-acetamide]
free amphetamine released ([3]; Baking Powder): 0%
free amphetamine released ([3]; Baking Soda): 0%
free amphetamine released ([3]; Tap Water): 0%
free amphetamine released ([3]; Vinegar): 0%
Release of free amphetamine in kitchen tests ([3]; water, vinegar, baking powder, baking soda, boiling 20-60 minutes): no detectable free amphetamine

CC(Cc1ccccc1)NC(=O)C(O)C(O)C(O)C(O)CO (centres unmarked) [Gulonate-Amp]
Percent AUC (bioavailability relative to Amphetamine) [2]: 0.4%
Percent Cmax (relative to Amphetamine) [2]: 0.5%
Percent AUC (bioavailability relative to Amphetamine) [1]: 1%
Percent Cmax (relative to Amphetamine) [1]: 1%
Percent AUC (bioavailability relative to Amphetamine) [4]: 3%
Percent Cmax (relative to Amphetamine) [4]: 5%

[2H]N[C@@H](Cc1c[nH]cn1)C(=O)NC(C)Cc1ccccc1 (some centres unmarked) [H-Amp]
Percent AUC (bioavailability relative to Amphetamine) [2]: 22%
Percent Cmax (relative to Amphetamine) [2]: 42%
Percent AUC (bioavailability relative to Amphetamine) [1]: 16%
Percent Cmax (relative to Amphetamine) [1]: 21%

[2H]N[C@H](C(=O)NC(C)Cc1ccccc1)[C@@H](C)CC (some centres unmarked) [I-Amp]
Percent AUC (bioavailability relative to Amphetamine) [2]: 73%
Percent Cmax (relative to Amphetamine) [2]: 97%
Percent AUC (bioavailability relative to Amphetamine) [1]: 71%
Percent Cmax (relative to Amphetamine) [1]: 52%

[2H]N(CC(=O)NC(C)Cc1ccccc1)C(=O)[C@@H](N)CCCCN (some centres unmarked) [KG-Amp]
Percent AUC (bioavailability relative to Amphetamine) [2]: 13%
Percent Cmax (relative to Amphetamine) [2]: 12%
Percent AUC (bioavailability relative to Amphetamine) [1]: 69%
Percent Cmax (relative to Amphetamine) [1]: 71%

[2H]N[C@@H](CC(C)C)C(=O)NC(C)Cc1ccccc1 (stereo partly drawn) [L-Amp]
Percent AUC (bioavailability relative to Amphetamine) [1]: 65%
Percent Cmax (relative to Amphetamine) [1]: 81%

[2H]OC(=O)CC[C@H](NC(=O)[C@@H](N)CC(C)C)C(=O)NC(C)Cc1ccccc1 (some centres unmarked) [LE-Amp]
Percent AUC (bioavailability relative to Amphetamine) [2]: 6%
Percent Cmax (relative to Amphetamine) [2]: 6%
Percent AUC (bioavailability relative to Amphetamine) [1]: 40%
Percent Cmax (relative to Amphetamine) [1]: 28%

[2H]N1CCC[C@H]1C(=O)NC(C)Cc1ccccc1 (some centres unmarked) [P-Amp]
Percent AUC (bioavailability relative to Amphetamine) [2]: 2%
Percent Cmax (relative to Amphetamine) [2]: 2%
Percent AUC (bioavailability relative to Amphetamine) [1]: 6%
Percent Cmax (relative to Amphetamine) [1]: 3%

CC(Cc1ccccc1)NC(=O)C1CCCN1C(=O)C1CCCN1 (centres unmarked) [PP-Amp]
Percent AUC (bioavailability relative to Amphetamine) [2]: 47%
Percent Cmax (relative to Amphetamine) [2]: 43%
Percent AUC (bioavailability relative to Amphetamine) [1]: 61%
Percent Cmax (relative to Amphetamine) [1]: 80%

CC(Cc1ccccc1)NC(=O)C(N)Cc1ccccc1 (centres unmarked) [Phe-Amp, 2-amino-3-phenylpropanoic acid-(1-methyl-2-phenylethyl)-amide]
Bioavailability by parenteral routes of administration ([2]; rat, parenteral routes): little or no decrease

[2H]N[C@@H](Cc1ccc(O)cc1)C(=O)NC(C)Cc1ccccc1 (some centres unmarked) [Y-Amp]
Percent AUC (bioavailability relative to Amphetamine) [2]: 21%
Percent Cmax (relative to Amphetamine) [2]: 20%
Percent AUC (bioavailability relative to Amphetamine) [1]: 25%
Percent Cmax (relative to Amphetamine) [1]: 20%

C[C@H](N)Cc1ccccc1 [d-amphetamine sulfate]
F of d-amphetamine ([5]; 12 mg/kg): 101%
F of d-amphetamine ([5]; 60 mg/kg): 223%
Oral LD50 (rats [6]): 96.8 mg/kg

L-lysine-d-amphetamine diHCl
Observable signs of toxicity, Groups 4-6 (rats [7]): increased motor activity within two hours post-dose
Observable signs of toxicity, Groups 1-3 (rats [7]; Days 1-7): no observable signs

L-lysine-d-amphetamine dimesylate
Signs and symptoms of ADHD (ADHD-RS, CPRS) compared to placebo (children with ADHD): Significant improvements
Maximum d-amphetamine release ([8]; 3M sodium hydroxide): 25.4%
d-amphetamine release ([8]; all other basic conditions): less than 3%
d-amphetamine released ([9]; Cellfood ®, 1 h): 0 w.t. % d-amphetamine
d-amphetamine released ([9]; Cellfood ®, 24 h): 0 w.t. % d-amphetamine
d-amphetamine released ([9]; Drano ® Max with Bacteria, 1 h): 0 w.t. % d-amphetamine
d-amphetamine released ([9]; Drano ® Max with Bacteria, 24 h): 0 w.t. % d-amphetamine
d-amphetamine released ([9]; Enforcer ® Septic, 1 h): 0 w.t. % d-amphetamine
d-amphetamine released ([9]; Enforcer ® Septic, 24 h): 0 w.t. % d-amphetamine
d-amphetamine released ([9]; Esterase 3 mg/mL, 1 h): 0 w.t. % d-amphetamine
d-amphetamine released ([9]; Esterase 3 mg/mL, 24 h): 19 w.t. % d-amphetamine
d-amphetamine released ([9]; Omnigest ®, 1 h): 0 w.t. % d-amphetamine
d-amphetamine released ([9]; Omnigest ®, 24 h): 0 w.t. % d-amphetamine
d-amphetamine released ([9]; Pancreatin 10 mg/mL, 1 h): 0 w.t. % d-amphetamine
d-amphetamine released ([9]; Pancreatin 10 mg/mL, 24 h): 0 w.t. % d-amphetamine
d-amphetamine released ([9]; Pepsin 3 mg/mL, 1 h): 0 w.t. % d-amphetamine
d-amphetamine released ([9]; Pepsin 3 mg/mL, 24 h): 0 w.t. % d-amphetamine
d-amphetamine released ([9]; Pronase 3 mg/mL, 1 h): 0 w.t. % d-amphetamine
d-amphetamine released ([9]; Pronase 3 mg/mL, 24 h): 24 w.t. % d-amphetamine
d-amphetamine released ([9]; Rid-X ® Septic, 1 h): 0 w.t. % d-amphetamine
d-amphetamine released ([9]; Rid-X ® Septic, 24 h): 0 w.t. % d-amphetamine
d-amphetamine released ([9]; VitälZym ®, 1 h): 0 w.t. % d-amphetamine
d-amphetamine released ([9]; VitälZym ®, 24 h): 0 w.t. % d-amphetamine

From US20090181898A1, “ABUSE-RESISTANT A[…]” (SHIRE LLC, priority 2002, published 2009)
